Key:
winter wheat [1] = assay: Test E winter wheat; format: in vivo, Triticum aestivum; details: Postemergence; for Wheat (winter) plant response rating: Rate 250 g/ha
Outline: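 For postemergence, plants at the 1- to 4-leaf stage, in a 60:40 mix of sandy loam and potting mix, treated with compound formulated in a surfactant-containing non-phytotoxic solvent. Visual assessment versus untreated controls followed roughly 21–28 days in the greenhouse.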

Italian ryegrass = assay: Test E Italian ryegrass; format: in vivo, Lolium multiflorum; details: Preemergence; for I. Ryegrass plant response rating (0 to 100 scale): Rate 250 g/ha
morningglory = assay: Test B pre/postemergence morningglory; format: in vivo, Ipomoea hederacea
Outline: (§1)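 Test chemicals in a non-phytotoxic solvent mixture with surfactant were sprayed preemergence onto planted seeds and postemergence onto plants 2 to 18 cm tall (1- to 4-leaf stage). After twelve to sixteen days in a greenhouse, injury was visually rated against untreated controls from 0 (no effect) to 10 (complete control).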

blackgrass = assay: Test E blackgrass; format: in vivo, Alopecurus myosuroides; details: Preemergence; for Blackgrass plant response rating (0 to 100 scale): Rate 250 g/ha
green foxtail = assay: Test E green foxtail; format: in vivo, Setaria viridis; details: Preemergence; for Green foxtail plant response rating (0 to 100 scale): Rate 250 g/ha
winter wheat [2] = assay: Test E winter wheat; format: in vivo, Triticum aestivum; details: Preemergence; for Wheat (winter) plant response rating (0 to 100 scale): Rate 250 g/ha
bedstraw = assay: Test B pre/postemergence bedstraw; format: in vivo, Galium aparine
Outline: as §1

winter barley = assay: Test E winter barley; format: in vivo, Hordeum vulgare; details: Preemergence; for Barley (winter) plant response rating (0 to 100 scale): Rate 250 g/ha
velvetleaf = assay: Test B pre/postemergence velvetleaf; format: in vivo, Abutilon theophrasti
Outline: as §1

wild oat [3] = assay: Test E wild oat; format: in vivo, Avena fatua; details: Preemergence; for Wild oat plant response rating (0 to 100 scale): Rate 250 g/ha
wild oat [4] = assay: Test B pre/postemergence wild oat; format: in vivo, Avena fatua
Outline: as §1

[5] = Rate 1000 g/ha, 0 to 100 scale where 0 is no effect and 100 is complete control
[6] = 0 to 100 scale where 0 is no effect and 100 is complete control
[7] = Rate 500 g/ha, 0 to 100 scale, 0 is no effect, 100 is complete control
[8] = Rate 500 g/ha, 0 to 100 scale where 0 is no effect and 100 is complete control
[9] = Rate 1000 g/ha, 0 to 100 scale, 0 no effect, 100 complete control
[10] = Preemergence, Rate 62 g/ha, scale of 0 to 10 where 0 is no effect and 10 is complete control
[11] = Preemergence, Rate 250 g/ha, scale of 0 to 10 where 0 is no effect and 10 is complete control
[12] = Preemergence, Rate 500 g/ha, scale of 0 to 10 where 0 is no effect and 10 is complete control
[13] = Rate 125 g/ha, Postemergence, scale of 0 to 10 where 0 is no effect and 10 is complete control
[14] = Rate 125 g/ha, Preemergence, scale of 0 to 10 where 0 is no effect and 10 is complete control
[15] = Rate 250 g/ha, Postemergence, scale of 0 to 10 where 0 is no effect and 10 is complete control
[16] = Rate 500 g/ha, Postemergence, scale 0 to 10, 0 no effect, 10 complete control
[17] = Rate 500 g/ha, 0 to 100 scale (0 no effect, 100 complete control)
[18] = Rate 62 g/ha, Postemergence, scale 0 to 10 (0 no effect, 10 complete control)

## Cc1cccc(C)c1-n1c(=O)on(C(=O)N(C(C)C)C2C=CCCC2)c1=O (stereo not shown) [Compound 273]
Winter wheat [1]; [5]
  Plant response rating, Wheat (winter): 60
Winter wheat [1]; [6]
  Wheat (winter) plant response rating: 30
Winter wheat [1]; [7]
  Plant response rating, Wheat (winter): 50
Italian ryegrass
  I. Ryegrass plant response rating (0 to 100 scale): 30
Italian ryegrass; [8]
  Plant response rating, I. Ryegrass: 55
Italian ryegrass; [9]
  Plant response rating, I. Ryegrass: 60
morningglory; [10]
  Morningglory plant response rating: 0
morningglory; [11]
  Morningglory plant response rating: 0
morningglory; [12]
  Plant response rating, Morningglory: 0
morningglory; [13]
  Morningglory plant response rating: 0
morningglory; [14]
  Morningglory plant response rating: 0
morningglory; [15]
  Plant response rating, Morningglory: 2
morningglory; [16]
  Morningglory plant response rating: 3
blackgrass
  Blackgrass plant response rating (0 to 100 scale): 55
blackgrass; [8]
  Plant response rating, Blackgrass: 80
blackgrass; [9]
  Plant response rating, Blackgrass: 100
Green foxtail
  Green foxtail plant response rating (0 to 100 scale): 20
Green foxtail; [8]
  Plant response rating, Green foxtail: 30
Green foxtail; [9]
  Plant response rating, Green foxtail: 60
Winter wheat [2]
  Wheat (winter) plant response rating (0 to 100 scale): 50
Winter wheat [2]; [8]
  Plant response rating, Wheat (winter): 60
Winter wheat [2]; [9]
  Plant response rating, Wheat (winter): 60
bedstraw; [10]
  Bedstraw plant response rating: 0
bedstraw; [11]
  Bedstraw plant response rating: 0
bedstraw; Rate 62 g/ha, Postemergence, scale of 0 to 10 where 0 is no effect and 10 is complete control
  Bedstraw plant response rating: 0
bedstraw; [13]
  Bedstraw plant response rating: 0
bedstraw; [14]
  Bedstraw plant response rating: 0
bedstraw; [15]
  Plant response rating, Bedstraw: 0
bedstraw; [16]
  Bedstraw plant response rating: 0
Winter barley
  Barley (winter) plant response rating (0 to 100 scale): 70
Winter barley; [8]
  Plant response rating, Barley (winter): 65
Winter barley; [9]
  Plant response rating, Barley (winter): 80
velvetleaf; [10]
  Velvetleaf plant response rating: 0
velvetleaf; [11]
  Velvetleaf plant response rating: 0
velvetleaf; [12]
  Plant response rating, Velvetleaf: 1
velvetleaf; [13]
  Velvetleaf plant response rating: 0
velvetleaf; [14]
  Velvetleaf plant response rating: 0
velvetleaf; [15]
  Plant response rating, Velvetleaf: 0
velvetleaf; [16]
  Velvetleaf plant response rating: 2
Wild oat [3]
  Wild oat plant response rating (0 to 100 scale): 80
Wild oat [3]; [8]
  Plant response rating, Wild oat: 70
Wild oat [3]; [9]
  Plant response rating, Wild oat: 80
Wild oat [4]; [10]
  Wild oats plant response rating: 0
Wild oat [4]; [11]
  Wild oats plant response rating: 0
Wild oat [4]; [12]
  Plant response rating, Wild oats: 3
Wild oat [4]; [13]
  Wild oats plant response rating: 0
Wild oat [4]; [15]
  Plant response rating, Wild oats: 0
Wild oat [4]; [16]
  Wild oats plant response rating: 0

## CC(C)N(C(=O)n1oc(=O)n(C2CCCC2)c1=O)c1ccccc1 [Compound 283]
Winter wheat [1]; [5]
  Plant response rating, Wheat (winter): 75
Winter wheat [1]; [6]
  Wheat (winter) plant response rating: 60
Winter wheat [1]; [7]
  Plant response rating, Wheat (winter): 50
Italian ryegrass
  I. Ryegrass plant response rating (0 to 100 scale): 70
Italian ryegrass; [17]
  Plant response rating, I. Ryegrass: 90
Italian ryegrass; [9]
  Plant response rating, I. Ryegrass: 98
morningglory; [10]
  Morningglory plant response rating: 0
morningglory; [11]
  Morningglory plant response rating: 0
morningglory; [12]
  Plant response rating, Morningglory: 0
morningglory; [18]
  Morningglory plant response rating: 8
morningglory; [13]
  Morningglory plant response rating: 9
morningglory; [14]
  Morningglory plant response rating: 0
morningglory; [15]
  Plant response rating, Morningglory: 9
morningglory; [16]
  Morningglory plant response rating: 10
blackgrass
  Blackgrass plant response rating (0 to 100 scale): 50
blackgrass; [17]
  Plant response rating, Blackgrass: 60
blackgrass; [9]
  Plant response rating, Blackgrass: 85
Green foxtail
  Green foxtail plant response rating (0 to 100 scale): 100
Green foxtail; [17]
  Plant response rating, Green foxtail: 100
Green foxtail; [9]
  Plant response rating, Green foxtail: 100
Winter wheat [2]
  Wheat (winter) plant response rating (0 to 100 scale): 50
Winter wheat [2]; [17]
  Plant response rating, Wheat (winter): 65
Winter wheat [2]; [9]
  Plant response rating, Wheat (winter): 80
bedstraw; [10]
  Bedstraw plant response rating: 0
bedstraw; [11]
  Bedstraw plant response rating: 1
bedstraw; [12]
  Plant response rating, Bedstraw: 9
bedstraw; [18]
  Bedstraw plant response rating: 0
bedstraw; [13]
  Bedstraw plant response rating: 1
bedstraw; [14]
  Bedstraw plant response rating: 0
bedstraw; [15]
  Plant response rating, Bedstraw: 5
bedstraw; [16]
  Bedstraw plant response rating: 6
Winter barley
  Barley (winter) plant response rating (0 to 100 scale): 60
Winter barley; [17]
  Plant response rating, Barley (winter): 75
Winter barley; [9]
  Plant response rating, Barley (winter): 80
velvetleaf; [10]
  Velvetleaf plant response rating: 0
velvetleaf; [11]
  Velvetleaf plant response rating: 5
velvetleaf; [12]
  Plant response rating, Velvetleaf: 7
velvetleaf; [18]
  Velvetleaf plant response rating: 0
velvetleaf; [13]
  Velvetleaf plant response rating: 0
velvetleaf; [14]
  Velvetleaf plant response rating: 2
velvetleaf; [15]
  Plant response rating, Velvetleaf: 1
velvetleaf; [16]
  Velvetleaf plant response rating: 3
Wild oat [3]
  Wild oat plant response rating (0 to 100 scale): 65
Wild oat [3]; [17]
  Plant response rating, Wild oat: 50
Wild oat [3]; [9]
  Plant response rating, Wild oat: 70
Wild oat [4]; [10]
  Wild oats plant response rating: 0
Wild oat [4]; [11]
  Wild oats plant response rating: 4
Wild oat [4]; [12]
  Plant response rating, Wild oats: 7
Wild oat [4]; [18]
  Wild oats plant response rating: 0
Wild oat [4]; [13]
  Wild oats plant response rating: 0
Wild oat [4]; [15]
  Plant response rating, Wild oats: 0
Wild oat [4]; [16]
  Wild oats plant response rating: 0
